Results published in patent US8338451B2, “Polysubstituted derivatives of 2-heteroaryl-6-phenylimidazo[1,2-a]pyridines, and preparation and therapeutic use thereof” (Sanofi, priority 2008, dated 2012).

molecular target: T1, mouse Nurr1 receptor (Mus musculus, UniProt Q06219); assay: In vitro activity on N2A cells: NBRE-luciferase reporter (NOT/Nurr1 modulation); type: cell-based; conditions: N2A (Neuro-2A) cells stably transfected with 8NBRE-luciferase, 24 hours incubation
T1 construct: a cell line (N2A) endogenously expressing the mouse Nurr1 receptor; host or cells: Neuro-2A (N2A) mouse neuroblastoma cells stably transfected with 8NBRE-luciferase
T1 sequence (Q06219 whole entry): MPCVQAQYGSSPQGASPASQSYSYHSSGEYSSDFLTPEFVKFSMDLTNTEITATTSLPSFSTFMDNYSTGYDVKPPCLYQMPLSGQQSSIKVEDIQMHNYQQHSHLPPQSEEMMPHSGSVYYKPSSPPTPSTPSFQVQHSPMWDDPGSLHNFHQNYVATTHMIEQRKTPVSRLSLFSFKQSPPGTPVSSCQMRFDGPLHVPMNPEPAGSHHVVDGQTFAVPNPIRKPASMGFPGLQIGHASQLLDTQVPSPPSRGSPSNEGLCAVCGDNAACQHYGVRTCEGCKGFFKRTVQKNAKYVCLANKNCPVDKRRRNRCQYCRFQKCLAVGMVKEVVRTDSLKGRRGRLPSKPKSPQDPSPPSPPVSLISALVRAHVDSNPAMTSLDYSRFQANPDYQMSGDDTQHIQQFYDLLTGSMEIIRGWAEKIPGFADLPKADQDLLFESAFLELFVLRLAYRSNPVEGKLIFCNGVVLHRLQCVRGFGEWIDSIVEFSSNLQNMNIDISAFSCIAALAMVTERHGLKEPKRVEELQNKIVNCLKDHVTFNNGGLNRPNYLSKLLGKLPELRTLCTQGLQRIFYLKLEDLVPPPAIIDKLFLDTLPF
Protocol: Evaluation of the In Vitro Activity on N2A Cells The activity of the compounds according to the invention was evaluated on a cell line (N2A) endogenously expressing the mouse Nurr1 receptor and stably transfected with the NOT binding response element (NBRE) coupled to the luciferase reporter gene. The EC50 values are between 0.01 and 10 μM. The tests were carried out according to the procedure described below. The Neuro-2A cell line comes from a standard commercial source (ATCC). The Neuro-2A clone was obtained from a spontaneous tumour originating from a mouse A albino strain, by R. J Klebe et el. This Neuro-2A line is then stably transfected with 8NBRE-luciferase. The N2A-8NBRE cells are cultured to confluence in 75 cm^2 culture flasks containing DMEM supplemented with 10% of foetal calf serum, 4.5 g/l of glucose and 0.4 mg/ml of geneticin. After one week of culture, the cells are recovered with 0.25% trypsin for 30 seconds, and then resuspended in DMEM without phenol red, containing 4.5 g/l of glucose and 10% of Hyclone defatted serum, and deposited in white, transparent-bottom 96-well plates. The cells are deposited at a rate of 60 000 per well in 75 μl for 24 hours before the addition of the products. […] On the day of the measurement, an equivalent volume (100 μl) of Steadylite is added to each well, followed by a waiting period of 30 minutes in order to obtain complete lysis of the cells and maximum production of the signal. The plates are then measured in a microplate luminescence counter after having been sealed with an adhesive film. […] Each product concentration is diluted beforehand in culture medium before incubation with the cells thus containing a final concentration of 0.625% of DMSO.

Row | Compound | EC50 [nM]
1 | OCc1cccc(-c2ccc3nc(-c4ccc5c(c4)OCO5)cn3c2)c1 [Compound 6, {3-[2-(1,3-benzodioxol-5-yl)imidazo[1,2-a]pyridin-6-yl]phenyl}methanol] | 0.9
2 | OCc1cccc(-c2ccc3nc(-c4cccnc4)cn3c2)c1 [Compound 7] | 1.6
3 | OCc1ccc(-c2ccc3nc(-c4coc5ccccc45)cn3c2)cc1 [Compound 24, [4-[2-(benzofuran-3-yl)imidazo[1,2-a]pyridin-6-yl]phenyl]methanol] | 50
4 | OCc1c(F)cccc1-c1ccc2nc(-c3cccs3)cn2c1 [Compound 68, [2-fluoro-6-(2-thien-2-ylimidazo[1,2-a]pyridin-6-yl)phenyl]methanol] | 20
5 | OCc1c(F)ccc(-c2ccc3nc(-c4cc5ccccc5o4)cn3c2)c1F [Compound 79, [3-(2-benzofuran-2-ylimidazo[1,2-a]pyridin-6-yl)-2,6-difluorophenyl]methanol] | 5

Other lines, results leading:

Row | EC50 [nM] | Compound
6 | 202 | CC(C)(O)c1cccc(-c2ccc3nc(-c4ccccn4)cn3c2)c1 [Compound 50, 2-[3-(2-pyridin-2-ylimidazo[1,2-a]pyridin-6-yl)phenyl]propan-2-ol]
7 | 71 | Cc1cc(-c2cn3cc(-c4cccc(C(C)(C)O)c4)ccc3n2)no1 [Compound 86, 2-{3-[2-(5-methylisoxazol-3-yl)imidazo[1,2-a]pyridin-6-yl]phenyl}propan-2-ol]
